Source: PMC6209530 (Journal of the American Chemical Society, 2018)
Read-outs that look alike come from different tables or passages of the source. Peptide text beside a SMILES is read from it. * marks the point of attachment. X1 = CCCCCCCCCCCCCCCC(=O)OCC(C*)OC(=O)CCCCCCCCCCCCCCC; Palmitoyl = CCCCCCCCCCCCCCCC(=O)*

Key:
[1] = test system: differentiated human THP-1 cells; format: cell-based
TLR1 and TLR2 = TLR1 and TLR2 (Mus musculus, UniProt Q9EPQ1+Q9QUN7); format: cell-based; conditions: 500 nM, macrophages from mutant or knockout mice
Sequence of TLR1 and TLR2 (Q9EPQ1 26-795): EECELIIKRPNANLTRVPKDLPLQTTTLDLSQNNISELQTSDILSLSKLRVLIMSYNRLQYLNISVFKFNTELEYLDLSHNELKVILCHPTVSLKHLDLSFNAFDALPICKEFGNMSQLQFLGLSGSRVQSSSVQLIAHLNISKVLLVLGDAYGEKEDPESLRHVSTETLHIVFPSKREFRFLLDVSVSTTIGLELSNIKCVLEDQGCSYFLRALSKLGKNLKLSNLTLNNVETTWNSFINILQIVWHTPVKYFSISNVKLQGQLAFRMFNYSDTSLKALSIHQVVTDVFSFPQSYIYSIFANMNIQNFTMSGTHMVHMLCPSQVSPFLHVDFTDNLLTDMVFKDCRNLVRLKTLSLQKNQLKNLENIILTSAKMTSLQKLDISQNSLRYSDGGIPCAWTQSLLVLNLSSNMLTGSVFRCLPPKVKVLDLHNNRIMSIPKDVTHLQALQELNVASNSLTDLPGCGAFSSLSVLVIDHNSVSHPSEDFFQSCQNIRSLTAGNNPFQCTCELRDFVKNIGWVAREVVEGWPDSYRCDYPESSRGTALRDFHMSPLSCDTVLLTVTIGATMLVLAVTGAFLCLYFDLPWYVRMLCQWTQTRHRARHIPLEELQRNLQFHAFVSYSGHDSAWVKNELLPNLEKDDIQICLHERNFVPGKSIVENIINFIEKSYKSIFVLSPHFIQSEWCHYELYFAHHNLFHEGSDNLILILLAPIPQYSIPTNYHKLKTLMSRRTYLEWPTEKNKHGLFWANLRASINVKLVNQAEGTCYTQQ
Sequence of TLR1 and TLR2 (Q9QUN7 25-784): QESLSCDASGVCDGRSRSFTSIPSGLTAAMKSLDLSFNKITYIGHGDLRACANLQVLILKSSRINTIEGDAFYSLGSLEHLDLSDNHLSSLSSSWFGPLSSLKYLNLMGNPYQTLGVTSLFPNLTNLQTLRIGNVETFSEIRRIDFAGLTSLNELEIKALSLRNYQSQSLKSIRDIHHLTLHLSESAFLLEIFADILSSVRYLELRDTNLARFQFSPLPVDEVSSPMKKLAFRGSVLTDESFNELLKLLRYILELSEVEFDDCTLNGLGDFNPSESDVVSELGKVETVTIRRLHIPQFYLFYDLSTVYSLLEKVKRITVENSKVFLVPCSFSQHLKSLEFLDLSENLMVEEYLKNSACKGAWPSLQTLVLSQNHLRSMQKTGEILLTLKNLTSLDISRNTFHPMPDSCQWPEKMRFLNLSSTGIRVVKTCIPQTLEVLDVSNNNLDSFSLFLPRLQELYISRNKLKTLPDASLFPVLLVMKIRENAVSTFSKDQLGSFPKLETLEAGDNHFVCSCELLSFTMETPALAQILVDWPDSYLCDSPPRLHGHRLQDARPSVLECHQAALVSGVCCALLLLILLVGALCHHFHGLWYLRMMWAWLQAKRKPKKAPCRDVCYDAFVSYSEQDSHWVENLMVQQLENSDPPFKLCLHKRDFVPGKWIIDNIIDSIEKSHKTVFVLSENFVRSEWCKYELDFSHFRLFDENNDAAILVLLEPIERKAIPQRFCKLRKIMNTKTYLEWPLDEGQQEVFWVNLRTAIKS

mouse macrophages [2] = assay: cell growth inhibition; format: cell-based; conditions: read-out: IC50, cell growth inhibition
human THP-1 cells = assay: cell growth inhibition; format: cell-based; conditions: read-out: IC50, cell growth inhibition
[3] = test system: HCT116 human colon cancer; assay: cell growth inhibition; format: cell-based; conditions: read-out: IC50, cell growth inhibition
B16 mouse melanoma = assay: cell growth inhibition; format: cell-based; conditions: read-out: IC50, cell growth inhibition
[4] = test system: IKKα, IKKβ, p38, JNK, and ERK; conditions: cited from earlier work
mouse macrophages [5] = assay: stimulated release of TNF-α from mouse macrophages; format: cell-based; conditions: read-out: EC50, stimulated release of TNF-α
[6] = test system: human foreskin (HFF) fibroblast cells; assay: cell growth inhibition; format: cell-based; conditions: read-out: IC50, cell growth inhibition
[7] = test system: murine melanoma (B16-OVA); conditions: combination with anti-PD-L1, diprovocim/OVA i.m., cited from earlier work
mice = conditions: cited from earlier work; for adjuvant activity in mice: intramuscular (i.m.) injection with antigen (OVA)
[8] = test system: mouse (NIH/3T3) fibroblast cells; assay: cell growth inhibition; format: cell-based; conditions: read-out: IC50, cell growth inhibition
L1210 mouse leukemia = assay: cell growth inhibition; format: cell-based; conditions: read-out: IC50, cell growth inhibition
[9] = read-out: EC50, stimulated release of TNF-α, differentiated human THP-1 cells

Compound: O=C(NCCc1ccc(F)cc1)C1CN(C(=O)c2ccc(C(=O)N3CC(C(=O)NCCc4ccc(F)cc4)C(C(=O)NCCc4ccc(F)cc4)C3)cc2)CC1C(=O)NCCc1ccc(F)cc1 (centres unmarked) [Compound 69]
- EC50 [1, 9]: 0.1 µM

Compound: O=C(NCCc1ccc(F)cc1)[C@@H]1CN(C(=O)c2ccc(C(=O)N3C[C@@H](C(=O)NCCc4ccc(F)cc4)[C@H](C(=O)NCCc4ccc(F)cc4)C3)cc2)C[C@H]1C(=O)NCCc1ccc(F)cc1 [Compound 4]
- fold more potent than the all racemate (69) ([1]; human THP-1 cells): 3 fold
- EC50 [1, 9]: 0.05 µM

Compound: CCCCCCCCCCCCCCCC(=O)N[C@@H](CSCC(COC(=O)CCCCCCCCCCCCCCC)OC(=O)CCCCCCCCCCCCCCC)C(=O)N[C@@H](CO)C(=O)N[C@@H](CCCCN)C(=O)N[C@@H](CCCCN)C(=O)N[C@@H](CCCCN)C(=O)N[C@@H](CCCCN)C(=O)O (some centres unmarked) [Pam3CSK4, reference compound] (Palmitoyl-C(X1)SKKKK-OH; N-terminus and C-terminus assumed)
- EC50 [1]: 0.00091 µM

Compound: O=C(N[C@H]1C[C@@H]1c1ccccc1)[C@@H]1CN(C(=O)c2ccc(C(=O)N3C[C@@H](C(=O)N[C@H]4C[C@@H]4c4ccccc4)[C@H](C(=O)N[C@H]4C[C@@H]4c4ccccc4)C3)cc2)C[C@H]1C(=O)N[C@H]1C[C@@H]1c1ccccc1 [Compound 3]
- dependence of activity on downstream signaling proteins (TLR1 and TLR2): dependent on TLR1/TLR2 signaling through MyD88, TIRAP, and IRAK4
- times more potent than Pam3CSK4 ([1]; direct side-by-side comparison, human THP-1 cells): 5–10 times
- potency differential human THP-1 cells versus mouse macrophages ([1]; human versus mouse cell release of TNF-α): 10 fold
- EC50 [1, 9]: 0.00011 µM
- IC50 (mouse macrophages [2]): > 10 µM
- IC50 (human THP-1 cells): > 10 µM
- IC50 [3]: > 10 µM
- IC50 (B16 mouse melanoma): > 10 µM
- phosphorylation and activation of IKKα, IKKβ, p38, JNK, and ERK [4]: induce the phosphorylation and activation
- EC50 (mouse macrophages [5]): 0.0013 µM
- IC50 [6]: > 10 µM
- protection from tumor rechallenge [7]: protected mice from tumor rechallenge
- survival of mice implanted with B16-OVA melanoma [7]: cured or prolonged survival of mice
- survival of mice implanted with B16-OVA melanoma ([7]; listed as diprovocim-1): cured or prolonged the survival of mice
- adjuvant activity in TLR1 and TLR2 deficient mice (mice; i.m. with OVA, TLR1 and TLR2 deficient mice): inactive
- adjuvant activity in mice (mice): active as an adjuvant
- adjuvant activity in mice (mice; listed as Diprovocim-1): acts as an adjuvant
- IC50 [8]: > 10 µM
- IC50 (L1210 mouse leukemia): > 10 µM
